# Measurements: patent US10335454B2, “Combination and use” (HELPERBY THERAPEUTICS LIMITED, priority 2014, dated 2019)
# How the values were obtained:
# [1] = system: log phase NDM-1 Klebsiella pneumoniae (NCTC 13443 strain); assay: Time-kill of suloctidil and colistin, alone and in combination, against log phase NDM-1 Klebsiella pneumoniae; format: cell-based; conditions: for kill effect (CFU counts): colistin alone 16 μg/ml, FIG. 19
# Method: The synergistic effect of suloctidil in combination with colistin was tested against log phase NDM-1 Klebsiella pneumoniae using time-kill methods over a period of 24 hours.
# Bacterial strain used: NCTC 13443 strain of NDM-1 Klebsiella pneumoniae
# Growth of bacteria: Log phase growth of the bacteria was carried out according to methods known in the art.
# (§1) (i) Suloctidil was obtained from a commercial source and dissolved in DMSO to make a stock concentration of 10 mg/ml.
# (§2) (ii) Colistin was obtained from a commercial source at a concentration of 20 mg/ml.
# Both suloctidil and colistin were then added to 96 well plates either alone or in the combinations shown below in Table 1.
# (§3) The overnight culture was diluted with nutrient broth (Oxoid) to 10^7 CFU/ml and 280 μl and 290 μl of the culture was added to each combination well and single agent well, respectively, to make a final […] of 300 μl. Incubation of the compounds with the bacterial suspension was carried out for 24 hours. At 0, 2, 4, 7 and 25 hours, CFU counts were performed to measure the kill effects of the drug combination.
# [2] = system: log phase NDM-1 E. coli (BAA2469 strain); assay: Time-kill of suloctidil and colistin, alone and in combination, against log phase NDM-1 E. coli; format: cell-based; conditions: FIGS. 28 to 34
# Method: Materials and Methods • Bacterial strain used: BAA2469 strain of NDM-1 E. coli • Growth of bacteria: Log phase growth of bacteria was carried out according to methods known in the art.
# as §1, §2
# Both suloctidil and colistin were then added to 96 well plates either alone or in the combinations shown below in Table 2.
# as §3
Compound,"antimicrobial effect when used alone ([1]; suloctidil alone at 32, 16, 8 and 4 μg/ml, time-kill, FIGS. 18 to 27)","antimicrobial effect when used alone ([2]; suloctidil alone at 16, 8 and 4 μg/ml)",kill effect (CFU counts) ([1]; after 7 hours),kill effect (CFU counts) ([1]; after 25 hours),"antimicrobial effect when used alone ([1]; colistin alone at 8 and 4 μg/ml, time-kill, FIGS. 20, 21, 24, 25 and 27)","duration of the antimicrobial effect ([1]; colistin alone at 32 and 16 μg/ml, time-kill)","antimicrobial effect when used alone ([1]; colistin alone at 32 and 16 μg/ml, time-kill, FIGS. 18, 19, 22, 23 and 26)","antimicrobial effect when used alone ([2]; colistin alone at 8, 4, 2 and 1 μg/ml)"
CCCCCCCCNC(C)C(O)c1ccc(SC(C)C)cc1 (centres unmarked) [suloctidil],no antimicrobial effect,no antimicrobial effect,,,,,,
colistin,,,complete kill,bacteria re-growth,no antimicrobial effect,not long term,antimicrobial effect,no antimicrobial effect
